Literature values as cited in patent US20230091170A1, “ENRICHMENT OF ANTIGEN-SPECIFIC ANTIBODIES FOR ANALYTIC AND THERAPEUTIC USE” (priority 2020, published 2023).
Like-named read-outs stand apart in the source and are kept apart here.

SMILES: O=C(O)CCCC[C@@H]1SC[C@@H]2NC(=O)N[C@@H]21 [Biotin]
- Serum concentration of biotin (after a single dose of 300 mg biotin): up to 1160 ng/mL
- Normal circulating concentrations of biotin (derived from the diet and normal metabolism): < 1.2 ng/mL
- Serum concentration of biotin (within the first hour after ingestion, supplements of 20 mg biotin per day): up to 355 ng/mL
